Measured values from patent US20070043034A1, “Chlorine Ion Uptake Modulators and Uses Thereof” (priority 2005, published 2007).

How the values were obtained:
[1] = tested on: low-Mg^2+ induced recurrent seizures in the intact hippocampus; test: Low-Mg2+ ACSF induced recurrent seizures in the intact hippocampus in vitro; type: cell-based, rat; conditions: phenobarbital 100 μM, bumetanide 10 μM or both, 120 min application; intact hippocampus of P4-6 rats
Description: High expression level of the Na^+ K^+-2Cl^− (NKCCl) co-transporter in immature neurons causes the accumulation of chloride ions and a depolarized Cl^− equilibrium potential (ECl). This is linked to a higher seizure propensity and poor EEG response in neonates to the barbiturates and benzodiazepines, conventional anticonvulsant drugs that target Cl^−-permeable GABAA-receptor (GABAA-R) operated channels. […] Recurrent ictal-like seizures were induced by low-Mg^+ ACSF in intact hippocampal preparations in vitro. […] Bumetanide decreased both seizure frequency and seizure power.
FIGS. 11A-11C are graphs of low-Mg^2+πinduced recurrent seizures in the intact hippocampus in vitro. […] First and last seizures from 5 hour recording are shown on an expanded time scale. Right, corresponding power spectra in the 0.1-1000 Hz frequency band. […] Summary data are taken from ten hippocampi. […] Power of the first seizure in each recording was considered as 100%. Data are taken from 18 recordings in 10 preparations from P4-6 rats.
FIGS. 12A-12C are graphs showing low efficiency of phenobarbital in neonatal seizures. FIG. 12A is a graph showing extracellular field potential recording in the CA3 pyramidal cell layer in the intact hippocampus of a P5 rat. Continuous application of low-Mg^2+ ACSF induced recurrent tonic-clonic seizures. […] The right portion corresponds to power spectra in the 0.1-1000 Hz frequency range. […] Data are from ten experiments that were combined. FIG. 12C is a graph showing power of recurrent seizures before, during and after phenobarbital application. Power of the first seizure in each recording was considered as 100%. Seizures were not depressed by phenobarbital indicating its low efficiency.
FIGS. 13A-13C are graphs showing that alteration of Cl^−-transport by bumetanide enhanced efficacy of phenobarbital in neonatal seizures. FIG. 13A is a graph of extracellular field potential recording in the CA3 pyramidal cell layer in the intact hippocampus of a P5 rat. Application of low-Mg^2+ ACSF induced recurrent seizures. […] These are shown on an expanded time scale. The right portion of FIG. 13A is a power spectra of extracellular field potential activity before and during application of drugs. FIG. 13B is a graph showing inter-seizure intervals before, during and after application of drugs. In 75% of experiments seizures were abolished (ISI>120 min) by simultaneous application of phenobarbital and bumetanide. FIG. 13C is a graph showing power of recurrent seizures before, during and after simultaneous application of phenobarbital and bumetanide. Power of the first seizure in each recording was considered as 100%. Seizures were depressed by combination of drugs.
FIGS. 14A and 14B are graphs showing alteration of Cl^−-transport for early-life seizure therapy. […]

[2] = tested on: hypoxia-induced seizures; test: Hypoxia-induced seizures in P10 rats; type: in vivo, rat; conditions: hypoxia 15 min, i.p., Bumetanide 0.15 mg/kg 10 min prior, Phenobarbital 15 mg/kg 30 min prior, versus vehicle
Description: Litters of male Long-Evans hooded rats from Charles River Laboratories (Wilmington, Mass., USA) were used in this study. Each litter was divided into five treatment groups: no hypoxia control, hypoxia/DMSO in PBS, hypoxia/Bumetanide only, hypoxia/Phenobarbital only, and hypoxia/combination of Bumetanide and Phenobarbital. One to two litters were used for each run of the experiment, and each litter was housed together until the weaning age of P21.
Rats at P10 (˜18 to 22 grams) were exposed to global hypoxia for 15 minutes in an airtight chamber into which N2 gas was rapidly infused. The oxygen concentration was maintained at 7% for 8 minutes, 5% for 6 minutes, and 4% for 1 minute before termination of hypoxia, during which the animals were immediately removed from the chamber and exposed to room air. For each animal during hypoxia, a record of the total number of myoclonic seizures and the total number and length of time in seconds of tonic clonic seizures were kept. For analysis purposes, time lengths of each tonic clonic seizure for each animal were pooled to obtain total seizure time. […] The body temperature of all animals was maintained at 34-40° C. on a warming blanket; the temperatures of each animal were also recorded before and after submission to hypoxia. […]

CCCCNc1cc(C(=O)O)cc(S(N)(=O)=O)c1Oc1ccccc1 [bumetanide, 3-(aminosulfonyl)-5-(butylamino)-4-phenoxybenzoic acid]
seizure frequency [1]: decreased
seizure power [1]: decreased
average seizing time [2]: did not significantly reduce
